| Compound | melting point [°C] |
| --- | --- |
| Cc1cccc(C)c1C#N | 90 |
| CNCc1ccccc1 | -24 |
| c1ccc(C2=C(c3ccccc3)C(c3ccccc3)C(c3ccccc3)=C2c2ccccc2)cc1 | 254 to 257 |
| ON=Cc1cccc(Br)c1 | 72 |
| Cc1nn(C)c(Cl)c1N=Nc1ccccc1 | 44 to 46 |
| Cc1cc(N=Nc2ccccc2C)ccc1N | 101 to 102 |
| OC(O)C(Cl)(Cl)Cl | 57 |
| O=C(NCc1ccccc1)C(C(F)(F)F)C(F)(F)F | 194 |
| CC(C)(C)c1nnc(NS(=O)(=O)c2ccccc2)s1 | 163 |
| Cc1ccccc1-c1cc(-c2ccccc2)[nH]n1 | 107 to 108 |
| O=C1Cc2cc3c(cc21)OCO3 | 126 |
| Cc1ccc(C(c2ccc(C)o2)c2ccccc2Br)o1 | 57 |
| Cc1ccc(N=Nc2cc(C(C)C)c(N=Nc3ccc(C)cc3)cc2C)cc1 | 140 |
| O=C=Nc1ccc(-c2cccs2)cc1 | 65 to 66 |
| O=[N+]([O-])c1cc(F)cc(F)c1 | 17 |
| CC1=NCCNc2c1c(=O)n(-c1ccccc1)c1ccccc21 | 221 |
| NC(=O)OCCCc1ccccc1 | 102 |
| CCNCC | -50 |
| O=c1[nH]c(=O)n(C2CCCO2)cc1F (stereo not given) | 172 |
| BrCC(Br)C1CCC(Br)C(Br)C1 (stereo not given) | 70 |
| COc1c(Br)c(C)c(Br)c(Br)c1OC | 90 |
| O=C(Nn1cnnc1)C(F)(F)C(F)(F)C(F)(F)C(F)(F)C(F)(F)C(F)(F)C(F)(F)C(F)(F)F | 151 |
| O=C(Nc1cc(C(F)(F)F)cc(C(F)(F)F)c1)c1cncc(Cl)n1 | 133 |
| CC(=NC#N)N(C)Cc1ccc(Cl)nc1 | 98.9 |
| NC(Cc1ccccc1)=NO | 66 to 67 |
| O=C(c1c(F)c(F)c(F)c(F)c1F)n1ccnc1 | 56 |
| O=C(O)c1c(C(F)(F)F)ccnc1F | 92 |

| Compound | melting point [°C] |
| --- | --- |
| OCc1cccc(Cl)c1Cl | 88 to 94 |
| CC(=O)Nc1ccc([N+](=O)[O-])c(F)c1 | 176 |
| S=c1sc2ccccc2n1CCl | 126 to 131 |
| O=C(O)c1ccc2c(c1)OCCO2 | 133 to 137 |
| CC1=Nc2ccccc2Nc2c1c(=O)n(-c1ccccc1)c1ccccc21 | 297 to 299 |
| CCS(=O)(=O)c1cccnc1S(=O)(=O)NC(=O)Nc1nc(OC)cc(OC)n1 | 177 |
| Clc1ncc(Br)cn1 | 79 |
| O=C(Cc1ccccc1)c1ccc2c3c(ccc([N+](=O)[O-])c13)CC2 | 189 |
| Cc1ccc(NC(=O)C(C(F)(F)F)C(F)(F)F)cc1 | 196 |
| Cc1ccc([N+](=O)[O-])c(CCl)c1 | 41 to 47 |
| Nc1cc(N)c(/C=C/c2ccccc2)c(N)c1C=Cc1ccccc1 | 161 |
| OCc1c(F)ccc(F)c1F | 46 |
| CCC(=O)Nc1ccc(Cl)c(Cl)c1 | 92 |
| O=c1c(Cl)c(Cl)cnn1Cc1c(Cl)cccc1Cl | 158 to 160 |
| C[C@]12CC(=O)C[C@@]1(C)CC(=O)C2 | 228 to 230 |
| c1ccc2c(c1)CC1(OCCO1)c1ccccc1CC21OCCO1 | 143 to 144 |
| C=C(Br)CC1(C(C)CC)C(=O)NC(=O)NC1=O (stereo not given) | 132 |
| CC12C=CC(=O)C=C1CCC1C2CCC2(C)C1CCC2(C)O (stereo not given) | 164 |
| Cc1cncc(C#N)c1 | 84 |
| Cc1nn(Cc2nnc(S)o2)c(C)c1Br | 194 to 195 |
| COc1cc(F)c(OC)cc1F | 121 |
| COc1cc(O)c2c(=O)cc(-c3ccc(O)cc3)oc2c1 | 289 |
| C=CN1C(=O)c2ccccc2C1=O | 86 |
| Cc1ccc2c(C)c(C)ccc2c1 | 14 |
| COc1cccc(OC)c1 | -52 |
| O=S(=O)(Cl)Cc1ccc(Cl)c(Cl)c1 | 65 to 68 |
| CC(=O)c1cccc(-c2ccccc2)c1 | 36 |

| Compound | melting point [°C] |
| --- | --- |
| NS(=O)(=O)c1ccc(Cl)c(S(N)(=O)=O)c1 | 207 |
| Cc1cc(C)c(C2Oc3c(Cl)c(Cl)c(Cl)c(Cl)c3O2)cc1C | 188 |
| CC1(CO)CN(c2ccccc2)NC1=O (stereo not given) | 125 |
| Fc1ccc2[nH]ccc2c1 | 45 |
| C1COCCNCCOCCOCCN1 | 89 to 92 |
| Nc1nn2c(C(F)(F)F)cc(=O)[nH]c2c1/N=N/c1ccc(S(=O)(=O)O)cc1 | 292 |
| Brc1ccc(Oc2ccccc2Br)c(Br)c1 | < 20 |
| O=[N+]([O-])c1cccc(SSc2cccc([N+](=O)[O-])c2)c1 | 84 |
| C1CCCCCC1 | -8 |
| O=C(O)c1cc([N+](=O)[O-])cnc1O | 246 |
| O=C(c1ccccc1)c1cnc2ccc(Br)cn2c1=O | 208 to 210 |
| CC(=O)c1ccc(Cl)c([N+](=O)[O-])c1 | 98 |
| NC(=O)Cc1nc(-c2ccccc2)cs1 | 193 to 194 |
| Cc1cc(Cl)ccc1OC(C)C(=O)Nc1ccc2nc(SCc3ccccc3)sc2c1 (stereo not given) | 168 |
| C=COCCCl | -70 |
| O=C(O)c1ccc(F)cc1C(F)(F)F | 123 |
| O=[N+]([O-])c1ccc(C=Cc2cccc(CO)n2)o1 | 170 |
| Cc1cncc(Oc2cccc(N)c2)n1 | 59.5 to 61 |
| CC1(C)C(=O)Nc2ccccc21 | 154 |
| O=C(Oc1c(F)c(F)c(F)c(F)c1F)c1ccc(-c2cnco2)cc1 | 141 to 143 |
| Cc1ccc(C)n1CC1CCNCC1 | 50 |
| Nc1cnc(N)c(Br)c1 | 117 to 122 |
| CC1CS(=O)(=O)CCN1N=Cc1ccc([N+](=O)[O-])o1 (stereo not given) | 181 |
| CSc1nc(N)nc(-c2cccnc2)n1 | 243 to 254 |
| N#Cc1ccc(CCc2ccc(C#N)cc2)cc1 | 198 to 203 |

Now from value to compound:

| melting point [°C] | Compound |
| --- | --- |
| 36 | COc1ccc2oc(CCC(C)=O)c(-c3ccc(C)o3)c2c1 |
| 61 | COC(=O)c1ccc(C2(C)C=CC=CC=C2)cc1 |
| 146 | Cc1ccc(C(=O)c2ccccc2C(=O)O)cc1 |
| 184 | NC(=O)Cc1cccc2ccccc12 |
| 138 | Cc1ccccc1C(=O)Cc1ccccc1C(=O)O |
| 64 to 65 | CCOC(=O)Nc1ccc(C)cc1[N+](=O)[O-] |
| -50 | CCCCC(CC)COP(=O)(O)OCC(CC)CCCC (stereo not given) |
| 121 to 122 | O=C(O)CCC(=O)c1cccs1 |
| 70.5 | CCCCCCCCCCCCCCCCCCOCC(O)CO (stereo not given) |
| 86 | CC(CCC(=O)O)n1nnc2ccccc21 (stereo not given) |
| 172 | COc1cc2cc(c1Cl)N(C)C(=O)CC(OC(=O)C(C)N(C)C(C)=O)C1(C)OC1C(C)C1CC(O)(NC(=O)O1)C(OC)C=CC=C(C)C2 (stereo not given) |
| 144 | CC(NC(=O)CCCCN1C(=O)c2ccccc2C1=O)[P+]([O-])(Oc1ccccc1)Oc1ccccc1 (stereo not given) |
| 50 | C=C(NC(C)=O)C(=O)OC |
| -47 | CCCCOCCOCCOC(=O)CCCCC(=O)OCCOCCOCCCC |
| 48.5 | NS(=O)(=O)c1ccc(SCCCCO)s1 |
| 149 to 151 | CC12CC3(C)CC(C)(C1)CC(C(=O)O)(C2)C3 |
| 142 | C[N+](C)(C)CCOP(=O)([O-])OCC(O)CO (stereo not given) |
| 175 | COc1cc2c(cc1OC)C(=O)NCC2 |
| 85 to 89 | CC(C)(C)OC(=O)N[C@@H](C=O)Cc1ccccc1 |
| 55 to 57 | CN(C)CCOc1ccc(N)cc1 |
| 20 | CCCCCCCCCCCCCCCCCCN=C=O |
| 171 | COc1ccc(N/C=C2\C(=O)C3(C)CCC2C3(C)C)cc1 (stereo not given) |
| 44 | COC(=O)c1ccc(Cl)cc1[N+](=O)[O-] |
| 135 | OCCN1CCN(CCO)CC1 |
| -61.6 | CC#CCCCCC |
| 209 | COC(=O)C1=C(C(=O)OC)Cc2cc3c(cc2C1)CC(C(=O)OC)=C(C(=O)OC)C3 |

| melting point [°C] | Compound |
| --- | --- |
| 101 | CCCCCC(N)=O |
| 229 to 231 | CCOC(=O)c1c(C)n(O)c2ccc3nonc3c12 |
| 140 to 143 | NNC(=O)c1ccccc1-c1ccccc1 |
| 132 | CC(Cc1ccccc1)(C(=O)O)C(=O)O |
| 180 | COc1ccc2c(c1)CCC1C2CCC2(C)C(=O)C(Cl)CC12 (stereo not given) |
| 132 | CC(=O)c1ccc(O)c([N+](=O)[O-])c1 |
| -83 | CCCCCC1CCCC1 |
| 278 to 282 | Cc1c(C)c(C)c(C(=O)c2ccccc2C(=O)O)c(C)c1C |
| -29 | CCCCOC(=O)C(=O)OCCCC |
| 113 | COC(=O)C1(C(=O)OC)Cc2ccccc2C(=O)O1 |
| -70 | CCOCCCN |
| 73 to 75 | COC(=O)C1Cc2ccccc2N1C(=O)OC(C)(C)C (stereo not given) |
| 86 | COc1ccccc1NC(=O)CC(C)=O |
| 72 | CCOc1cc(C(=S)N2CCCCC2)ccc1OCc1ccccc1 |
| 47 to 50 | CSCC[C@@H](NC(=O)OC(C)(C)C)C(=O)O |
| 143 to 147 | CC(=O)c1cc(O)cc(O)c1 |
| 150 | CC(C)CCC[C@@H](C)[C@H]1CC[C@H]2C3=CC=C4C[C@@H](O)CC[C@]4(C)[C@H]3CC[C@]12C |
| 75.5 | CCOC(=O)C1(S(=O)(=O)c2ccc(C)cc2)CC1 |
| -18.1 | CCCCCCCCOC(=O)CCCCCCC |
| 199 to 201 | Cn1c(N)c(C=O)c(=O)n(C)c1=O |
| 69.5 | CCC(=O)c1ccc2c(c1)N(CCCN(C)C)c1ccccc1S2 |
| -124 | CCCCOCC |
| 41 | CC12CCC(C(C(=O)Oc3ccccc3)C1)C2(C)C (stereo not given) |
| 140 | CCOC(=O)C=C1SC(N2CCCCC2)C(=O)N1C (stereo not given) |
| 180 | COC(=O)c1ccccc1OC1OC(COC2OCC(O)C(O)C2O)C(O)C(O)C1O (stereo not given) |

Reference: a melting point compilation (Tetko et al.)
